Measured values published in ChEMBL document CHEMBL4138146, “A Schmidt rearrangement-mediated synthesis of novel tetrahydro-benzo[1,4]diazepin-5-ones as potential anticancer and antiprotozoal agents” (Eur J Med Chem, 2017).
Values after ≈ are worked out from the molar mass of the structure shown.

system: MDA-MB-435; assay: Growth inhibition of human MDA-MB-435 cells assessed as cell growth at 10 uM incubated for 48 hrs by sulforhodamine B assay relative to control; format: functional; conditions: MDA-MB-435, 48 h, read-out: Activity

SMILES | growth at 10 µM
O=C1NCC(c2cc3ccccc3[nH]c2=O)Nc2ccccc21 (centres undefined) | 107%

system: U-937; assay: Cytotoxicity against human U937 cells after 72 hrs by MTT assay; format: functional; conditions: U-937, 72 h, read-out: LC50 (the source's name)

SMILES | CC50
O=C1NCC(c2cc3ccccc3[nH]c2=O)Nc2ccccc21 (centres undefined) | 36.3 µg/mL (≈ 119 µM)

system: SK-MEL-5; assay: Growth inhibition of human SK-MEL-5 cells assessed as cell growth at 10 uM incubated for 48 hrs by sulforhodamine B assay relative to control; format: functional; conditions: SK-MEL-5, 48 h, read-out: Activity

SMILES | growth at 10 µM
O=C1NCC(c2cc3ccccc3[nH]c2=O)Nc2ccccc21 (centres undefined) | 97.2%

system: SNB-75; assay: Growth inhibition of human SNB75 cells assessed as cell growth at 10 uM incubated for 48 hrs by sulforhodamine B assay relative to control; format: functional; conditions: SNB-75, 48 h, read-out: Activity

SMILES | growth at 10 µM
O=C1NCC(c2cc3ccccc3[nH]c2=O)Nc2ccccc21 (centres undefined) | 99.6%

system: MDA-MB-231; assay: Growth inhibition of human MDA-MB-231 cells assessed as cell growth at 10 uM incubated for 48 hrs by sulforhodamine B assay relative to control; format: functional; conditions: MDA-MB-231, 48 h, read-out: Activity

SMILES | growth at 10 µM
O=C1NCC(c2cc3ccccc3[nH]c2=O)Nc2ccccc21 (centres undefined) | 97.9%

system: DU-145; assay: Growth inhibition of human DU145 cells assessed as cell growth at 10 uM incubated for 48 hrs by sulforhodamine B assay relative to control; format: functional; conditions: DU-145, 48 h, read-out: Activity

SMILES | growth at 10 µM
O=C1NCC(c2cc3ccccc3[nH]c2=O)Nc2ccccc21 (centres undefined) | 111%

system: SR; assay: Growth inhibition of human SR cells assessed as cell growth at 10 uM incubated for 48 hrs by sulforhodamine B assay relative to control; format: functional; conditions: read-out: Activity

SMILES | growth at 10 µM
O=C1NCC(c2cc3ccccc3[nH]c2=O)Nc2ccccc21 (centres undefined) | 100%

system: EKVX; assay: Growth inhibition of human EKVX cells assessed as cell growth at 10 uM incubated for 48 hrs by sulforhodamine B assay relative to control; format: functional; conditions: read-out: Activity

SMILES | growth at 10 µM
O=C1NCC(c2cc3ccccc3[nH]c2=O)Nc2ccccc21 (centres undefined) | 106%

system: K562; assay: Growth inhibition of human K562 cells assessed as cell growth at 10 uM incubated for 48 hrs by sulforhodamine B assay relative to control; format: functional; conditions: K562, 48 h, read-out: Activity

SMILES | growth at 10 µM
O=C1NCC(c2cc3ccccc3[nH]c2=O)Nc2ccccc21 (centres undefined) | 90.2%

system: HL-60(TB); assay: Growth inhibition of human HL-60(TB) cells assessed as cell growth at 10 uM incubated for 48 hrs by sulforhodamine B assay relative to control; format: functional; conditions: HL-60, 48 h, read-out: Activity

SMILES | growth at 10 µM
O=C1NCC(c2cc3ccccc3[nH]c2=O)Nc2ccccc21 (centres undefined) | 95.7%

system: Hs-578T; assay: Growth inhibition of human Hs 578T cells assessed as cell growth at 10 uM incubated for 48 hrs by sulforhodamine B assay relative to control; format: functional; conditions: read-out: Activity

SMILES | growth at 10 µM
O=C1NCC(c2cc3ccccc3[nH]c2=O)Nc2ccccc21 (centres undefined) | 99.4%

system: LOX IMVI; assay: Growth inhibition of human LOXIMVI cells assessed as cell growth at 10 uM incubated for 48 hrs by sulforhodamine B assay relative to control; format: functional; conditions: read-out: Activity

SMILES | growth at 10 µM
O=C1NCC(c2cc3ccccc3[nH]c2=O)Nc2ccccc21 (centres undefined) | 98.5%

system: HCT-15; assay: Growth inhibition of human HCT15 cells assessed as cell growth at 10 uM incubated for 48 hrs by sulforhodamine B assay relative to control; format: functional; conditions: HCT-15, 48 h, read-out: Activity

SMILES | growth at 10 µM
O=C1NCC(c2cc3ccccc3[nH]c2=O)Nc2ccccc21 (centres undefined) | 106%

system: Plasmodium falciparum; assay: Antimalarial activity against chloroquine-sensitive Plasmodium falciparum 3D7 incubated for 48 hrs by malstat reagent based LDH release assay; format: functional, organism-based; conditions: 3D7, 48 h

SMILES | EC50
O=C1NCC(c2cc3ccccc3[nH]c2=O)Nc2ccccc21 (centres undefined) | 64.7 µg/mL (≈ 212 µM)

system: MOLT-4; assay: Growth inhibition of human MOLT4 cells assessed as cell growth at 10 uM incubated for 48 hrs by sulforhodamine B assay relative to control; format: functional; conditions: MOLT-4, 48 h, read-out: Activity

SMILES | growth at 10 µM
O=C1NCC(c2cc3ccccc3[nH]c2=O)Nc2ccccc21 (centres undefined) | 111%

system: M14; assay: Growth inhibition of human M14 cells assessed as cell growth at 10 uM incubated for 48 hrs by sulforhodamine B assay relative to control; format: functional; conditions: M14, 48 h, read-out: Activity

SMILES | growth at 10 µM
O=C1NCC(c2cc3ccccc3[nH]c2=O)Nc2ccccc21 (centres undefined) | 101%

system: NCI-H460; assay: Growth inhibition of human NCI-H460 cells assessed as cell growth at 10 uM incubated for 48 hrs by sulforhodamine B assay relative to control; format: functional; conditions: NCI-H460, 48 h, read-out: Activity

SMILES | growth at 10 µM
O=C1NCC(c2cc3ccccc3[nH]c2=O)Nc2ccccc21 (centres undefined) | 105%

system: SK-MEL-2; assay: Growth inhibition of human SK-MEL-2 cells assessed as cell growth at 10 uM incubated for 48 hrs by sulforhodamine B assay relative to control; format: functional; conditions: SK-MEL-2, 48 h, read-out: Activity

SMILES | growth at 10 µM
O=C1NCC(c2cc3ccccc3[nH]c2=O)Nc2ccccc21 (centres undefined) | 100%

system: Leishmania panamensis; assay: Antileishmanial activity against EpiR/GFP fused Leishmania panamensis MHOM/CO/87/UA140 intracellular amastigotes infected in human […] cells after 72 hrs by flow cytometric method; format: functional, organism-based; conditions: MHOM/CO/87/UA140, 72 h

SMILES | EC50
O=C1NCC(c2cc3ccccc3[nH]c2=O)Nc2ccccc21 (centres undefined) | 110 µg/mL (≈ 361 µM)

system: RPMI-8226; assay: Growth inhibition of human RPMI8226 cells assessed as cell growth at 10 uM incubated for 48 hrs by sulforhodamine B assay relative to control; format: functional; conditions: RPMI-8226, 48 h, read-out: Activity

SMILES | growth at 10 µM
O=C1NCC(c2cc3ccccc3[nH]c2=O)Nc2ccccc21 (centres undefined) | 106%

system: Trypanosoma cruzi; assay: Antitrypanosomal activity against Trypanosoma cruzi Tulahuen amastigote forms infected in human U937 cells after 72 hrs by beta-galactosidase reporter gene assay; format: functional, organism-based; conditions: U-937, 72 h

SMILES | EC50
O=C1NCC(c2cc3ccccc3[nH]c2=O)Nc2ccccc21 (centres undefined) | 48.8 µg/mL (≈ 160 µM)

system: 786-0; assay: Growth inhibition of human 786-0 cells assessed as cell growth at 10 uM incubated for 48 hrs by sulforhodamine B assay relative to control; format: functional; conditions: 786-0, 48 h, read-out: Activity

SMILES | growth at 10 µM
O=C1NCC(c2cc3ccccc3[nH]c2=O)Nc2ccccc21 (centres undefined) | 100%

system: SF-268; assay: Growth inhibition of human SF268 cells assessed as cell growth at 10 uM incubated for 48 hrs by sulforhodamine B assay relative to control; format: functional; conditions: SF-268, 48 h, read-out: Activity

SMILES | growth at 10 µM
O=C1NCC(c2cc3ccccc3[nH]c2=O)Nc2ccccc21 (centres undefined) | 99.9%

system: CAKI-1; assay: Growth inhibition of human Caki1 cells assessed as cell growth at 10 uM incubated for 48 hrs by sulforhodamine B assay relative to control; format: functional; conditions: CAKI-1, 48 h, read-out: Activity

SMILES | growth at 10 µM
O=C1NCC(c2cc3ccccc3[nH]c2=O)Nc2ccccc21 (centres undefined) | 88.1%

system: BT-549; assay: Growth inhibition of human BT549 cells assessed as cell growth at 10 uM incubated for 48 hrs by sulforhodamine B assay relative to control; format: functional; conditions: BT-549, 48 h, read-out: Activity

SMILES | growth at 10 µM
O=C1NCC(c2cc3ccccc3[nH]c2=O)Nc2ccccc21 (centres undefined) | 96.3%

system: HCC 2998; assay: Growth inhibition of human HCC2998 cells assessed as cell growth at 10 uM incubated for 48 hrs by sulforhodamine B assay relative to control; format: functional; conditions: HCC 2998, 48 h, read-out: Activity

SMILES | growth at 10 µM
O=C1NCC(c2cc3ccccc3[nH]c2=O)Nc2ccccc21 (centres undefined) | 104%

system: PC-3; assay: Growth inhibition of human PC3 cells assessed as cell growth at 10 uM incubated for 48 hrs by sulforhodamine B assay relative to control; format: functional; conditions: PC-3, 48 h, read-out: Activity

SMILES | growth at 10 µM
O=C1NCC(c2cc3ccccc3[nH]c2=O)Nc2ccccc21 (centres undefined) | 93.2%

system: SF-295; assay: Growth inhibition of human SF295 cells assessed as cell growth at 10 uM incubated for 48 hrs by sulforhodamine B assay relative to control; format: functional; conditions: SF-295, 48 h, read-out: Activity

SMILES | growth at 10 µM
O=C1NCC(c2cc3ccccc3[nH]c2=O)Nc2ccccc21 (centres undefined) | 106%

system: MCF7; assay: Growth inhibition of human MCF7 cells assessed as cell growth at 10 uM incubated for 48 hrs by sulforhodamine B assay relative to control; format: functional; conditions: MCF7, 48 h, read-out: Activity

SMILES | growth at 10 µM
O=C1NCC(c2cc3ccccc3[nH]c2=O)Nc2ccccc21 (centres undefined) | 103%
